Measurements from US20120220537A1, “9-AMINOACRIDINE DERIVATIVES, THEIR PREPARATION AND USES” (ARIEL-UNIVERSITY RESEARCH AND DEVELOPMENT COMPANY LTD., priority 2009, published 2012).
Entries after “also recorded” stand apart in the source; their conditions may differ. Read-outs that look alike come from different tables or passages of the source.

Key:
Format in all cases: cell-based
HT29 (colon carcinoma) = assay: In vitro cytotoxicity, neutral red uptake; settings: 24 h treatment, read-out: anticancer activity (IC50) HT29
Description: (§1) Cells (250000/well) were cultured in 24-well plates for 24 h to 70-80% confluence or cells (20000/well) were cultured in 96-well plates for 24 h or overnight to 70-80% confluence. Four 24-well plates and one 96-well plate have been seeded. The following concentrations of the compounds were examined (each one in triplicate)-0 microgram/μl, 0.05 microgram/ml, 0.5 microgram/ml, 5 microgram/ml, 50 microgram/ml. The volume of wells in 24-well plates was 0.5 ml while that of 96-well plates was 0.1 ml. After the 24 h treatment the culture medium in the wells were replaced with 0.5 ml fresh medium containing 1:100 dilution of neutral red (10 microliters/1 ml). The plates were incubated for 2 h in a dark in culture incubator. The medium was aspirated and the cells washed twice with 0.5/0.1 ml of solution containing 1% CaCl2 and 0.5% formaldehyde. The dye was extracted from cells upon addition of 0.5/0.1 ml 1% glacial acetic acid in 50% ethanol with 10 min incubation at room temperature. The absorbance was measured spectrophotometrically at a wavelength of 540 nm. The background absorbance measurement of the multiwell plates was done at 690 nm and subtract from 540 nm.

[1] = test system: MCF-7mito (mitoxantrone selected and associated with MDR phenomena breast cancer); assay: In vitro cytotoxicity, neutral red uptake; settings: read-out: anticancer activity (IC50) MCF7 mito
Description: as §1

[2] = test system: MDM-MD-A31 (renal cancer); assay: In vitro cytotoxicity, neutral red uptake; settings: MDM-MD-A31 cells, 24 h treatment, read-out: anticancer activity (IC50) MDM-MD-A31
Description: as §1

OVCAR8 (ovarian cancer) = assay: In vitro cytotoxicity, neutral red uptake; settings: 24 h treatment, read-out: anticancer activity (IC50) OVCAR8
Description: as §1

H1299 (lung carcinoma) = assay: In vitro cytotoxicity, neutral red uptake; settings: 24 h treatment, read-out: anticancer activity (IC50) H1299
Description: as §1

[3] = test system: cancer cell lines MDM-MD-A31, MCF-7, HT29, OVCAR8, NCI-ADR, MCF-7mito and H1299; assay: In vitro cytotoxicity, all tested cancer cell lines; settings: statement in words
Description: as §1

MCF-7 (breast cancer) = assay: In vitro cytotoxicity, neutral red uptake; settings: MCF7 wt cells, 24 h treatment, read-out: anticancer activity (IC50) MCF7 wt
Description: as §1

[4] = test system: NCI-ADR (associated with multidrug resistance (MDR) phenomena ovarian cancer); assay: In vitro cytotoxicity, neutral red uptake; settings: NCIADR cells, 24 h treatment, read-out: anticancer activity (IC50) NCIADR
Description: as §1

[5] = Homo sapiens, HT-29, HT29 cells
[6] = Homo sapiens, MCF7 mito cells, 24 h treatment, neutral red
[7] = Homo sapiens, OVCAR-8, OVCAR8 cells
[8] = Homo sapiens, NCI-H1299, H1299 cells

| Compound | IC50 (HT29 (colon carcinoma); [5]) [µM] | IC50 [1, 6] [µM] | IC50 [2] [µM] | IC50 (OVCAR8 (ovarian cancer); [7]) [µM] | IC50 (H1299 (lung carcinoma); [8]) [µM] | IC50 (MCF-7 (breast cancer); Homo sapiens) [µM] | IC50 ([4]; Homo sapiens, NCI/ADR-RES) [µM] | other results |
| --- | --- | --- | --- | --- | --- | --- | --- | --- |
| NC(=O)c1ccc(Nc2c3ccccc3nc3ccccc23)c([N+](=O)[O-])c1 [Compound 14, 4-(acridin-9-ylamino)-3-nitrobenzamide] | 3.6 | 7.2 | 0.6 |  |  |  |  |  |
| O=C1C(Cl)=C(Nc2c3ccccc3nc3ccccc23)C(=O)c2ccccc21 [Compound 39, 2-(acridin-9-ylamino)-3-chloronaphthoquinone] |  | 0.8 | 0.15 | 1.2 |  |  |  |  |
| O=C1C(Br)=C(Br)C(=O)C(Nc2c3ccccc3nc3ccccc23)=C1Br [Compound 38, 2-(acridin-9-ylamino)-3,5,6-tribromobenzoquinone] |  |  |  | 3.7 |  |  |  |  |
| CCOC1=C(Nc2c3ccccc3nc3ccccc23)C(=O)c2c(O)ccc(O)c2C1=O [Compound 41, 2-(acridin-9-ylamino)-3-ethoxy-5,8-dihydroxy-naphthoquinone] | 1.1 | 0.5 | 0.06 |  | 0.14 |  |  | cytotoxicity compared with reference or other tested compounds [3]: greater activity against all above mentioned cell lines than the anticancer drug amsacrine; also recorded: the most potent among the tested compounds |
| O=[N+]([O-])c1cc([N+](=O)[O-])c(Nc2c3ccccc3nc3ccccc23)cc1F [Compound 18, N-(2,4-dinitro-5-fluorophenyl)acridin-9-amine] |  |  | 0.3 |  |  |  |  |  |
| O=[N+]([O-])c1ccc(Nc2c3ccccc3nc3ccccc23)c([N+](=O)[O-])c1 [Compound 12, N-(2,4-dinitrophenyl)acridin-9-amine] | 71.3 |  | > 100 | 33.8 | > 100 | 89.1 | 15.4 | IC50 ([1]; Homo sapiens, MCF7, 24 h): 7.2 µM |
| Oc1ccc2ccccc2c1CNc1c2ccccc2nc2ccccc12 [Compound 8, N-(2-hydroxy-naphthylmethyl)acridin-9-amine] | 2.6 | 1.8 | 13.2 | 9.1 | 62.6 | 14.1 | 42.3 |  |
| O=C(O)c1ccccc1CNc1c2ccccc2nc2ccccc12 [Compound 1, 2-(acridin-9-ylaminomethyl)benzoic acid] | 1.2 | 0.76 | 10.3 | 0.71 | 74.3 | 20.2 | 12.2 | cytotoxicity compared with reference or other tested compounds [3]: more cytotoxic than the corresponding 9-aminoacridine |
| NCCCCC(NC(=O)c1ccc(Nc2c3ccccc3nc3ccccc23)c([N+](=O)[O-])c1)C(N)=O (stereo not drawn) [Compound 46, 4-(acridin-9-ylamino)-N-(1,6-diamino-1-oxohex-2-yl)-3-nitro-benzamide] | 7.14 | 18.4 | 75.6 | 15.4 | > 100 | 58.6 | 86.4 |  |
| COc1cc([N+](=O)[O-])ccc1Nc1c2ccccc2nc2ccccc12 [Compound 20, N-(2-methoxy-4-nitrophenyl)acridin-9-amine] | 1.2 |  | 0.1 | 0.6 |  |  |  |  |
| Nc1c2ccccc2nc2ccccc12 [9-aminoacridine] | 2.25 | 163 | 1.5 | 1.7 | 32.8 | 11.2 | 21 |  |
| amsacrine [reference compound] |  |  | 17.2 |  |  |  |  | IC50 (H1299 (lung carcinoma); H1299 cells): 119 µM; IC50 (HT29 (colon carcinoma); HT29 cells): 2.2 µM; IC50 (MCF-7 (breast cancer)): 19.8 µM; IC50 ([1]; MCF7 mito cells, 24 h treatment, neutral red): 1.5 µM; IC50 [4]: 16.1 µM; IC50 (OVCAR8 (ovarian cancer); OVCAR8 cells): 21.9 µM |
| O=[N+]([O-])c1cccnc1Nc1c2ccccc2nc2ccccc12 [Compound 21, N-(3-nitropyrid-2-yl)acridin-9-amine] |  | 1.6 | 0.8 |  | 0.7 |  |  |  |
| O=C(NC(CO)C(=O)O)c1ccc(Nc2c3ccccc3nc3ccccc23)c([N+](=O)[O-])c1 (stereo not drawn) [Compound 42, (2-(4-(acridin-9-ylamino)-3-nitrobenzamido)-3-hydroxypropanoic acid)] | 2.2 | 4.5 | 0.4 |  |  |  |  |  |
| O=C(O)c1ccc(Nc2c3ccccc3nc3ccccc23)c([N+](=O)[O-])c1 [Compound 13, 4-(acridin-9-ylamino)-3-nitrobenzoic acid] | 3.6 | 7.2 | 0.6 | 6.5 | 86.4 | 11.6 | 54.2 | cytotoxicity compared with reference or other tested compounds [3]: more cytotoxic than the corresponding 9-aminoacridine |
| O=[N+]([O-])c1ccccc1Nc1c2ccccc2nc2ccccc12 [Compound 10, N-(2-nitrophenyl)acridin-9-amine] | 74.2 | 46.7 | > 100 | > 100 | > 100 | > 100 | 40.3 |  |
| O=[N+]([O-])c1ccc(O)cc1CNc1c2ccccc2nc2ccccc12 [Compound 4, N-(2-nitro-5-hydroxy-benzyl)acridin-9-amine] | 7.14 | 18.4 | 75.6 | 15.4 | > 100 | 58.6 | 86.4 |  |
